Assay results reported in patent publication US8686150B2 (Sanofi, priority 2011, dated 2014).

Target: T1, human full-length recombinant PKC βII (Homo sapiens, UniProt P05771)
T1 construct: Active human full-length recombinant PKC βII; purchased Invitrogen GmbH, Darmstadt, Germany
Assay: Determination of PKC βII inhibition (Caliper mobility-shift kinase assay, Fluorescein-RFARKGSLRQKNV peptide substrate)
Type: biochemical
Settings: example compounds at a final concentration of 1.14 μM (±0.15 μM)
Summary of the method: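 Full-length PKC βII (30 ng/ml in pre-dilution) with PS/DAG/Ca2+ activators, pH 7.4; fluorescein peptide and ATP at 3 μM and 120 μM before mixing. Reaction ran 60 min at 32 °C, was EDTA-stopped, and was read by mobility shift. % inhibition came from product/(substrate+product) peak heights, tested at 1.14 μM final.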

T1 sequence (P05771 1-673 isoform P05771-2): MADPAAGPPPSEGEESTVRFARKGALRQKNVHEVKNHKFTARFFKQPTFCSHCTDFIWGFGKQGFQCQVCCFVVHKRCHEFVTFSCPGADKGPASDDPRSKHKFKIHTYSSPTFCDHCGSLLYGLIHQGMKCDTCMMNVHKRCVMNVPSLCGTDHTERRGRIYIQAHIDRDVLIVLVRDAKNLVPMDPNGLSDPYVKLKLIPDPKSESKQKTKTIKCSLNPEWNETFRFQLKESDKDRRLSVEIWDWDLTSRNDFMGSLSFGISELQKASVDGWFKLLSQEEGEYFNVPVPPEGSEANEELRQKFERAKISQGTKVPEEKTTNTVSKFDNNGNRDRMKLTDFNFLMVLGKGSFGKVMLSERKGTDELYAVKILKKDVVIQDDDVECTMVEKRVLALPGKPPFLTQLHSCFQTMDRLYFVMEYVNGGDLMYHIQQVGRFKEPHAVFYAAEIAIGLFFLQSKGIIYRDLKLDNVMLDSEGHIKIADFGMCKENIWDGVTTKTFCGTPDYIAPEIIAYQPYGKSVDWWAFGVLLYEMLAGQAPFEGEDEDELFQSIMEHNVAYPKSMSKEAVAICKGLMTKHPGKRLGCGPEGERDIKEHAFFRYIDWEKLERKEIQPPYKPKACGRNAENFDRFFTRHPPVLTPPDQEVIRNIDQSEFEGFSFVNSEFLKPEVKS

CCC1(CC)CNCCN1C(=O)c1cc(-c2ccc(O)cc2F)nc2[nH]nc(C)c12 [Example 436, (2,2-Diethyl-piperazin-1-yl)-[6-(2-fluoro-4-hydroxy-phenyl)-3-methyl-1H-pyrazolo[3,4-b]pyridin-4-yl]-methanone]
inhibition at 1.14 µM: 100%

Cc1n[nH]c2nc(-c3ccc(O)c(F)c3)cc(C(=O)NC3CN4CCC3CC4)c12 (stereo in doubt) [Example 361, (R)-6-(3-Fluoro-4-hydroxy-phenyl)-3-methyl-1H-pyrazolo[3,4-b]pyridine-4-carboxylic acid (1-aza-bicyclo[2.2.2]oct-3-yl)-amide]
inhibition at 1.14 µM: 50%

Cc1n[nH]c2nc(-c3ccc(O)cc3F)cc(C(=O)N3CC(C)(C)NCC3C)c12 (stereo not drawn) [Example 427, [6-(2-Fluoro-4-hydroxy-phenyl)-3-methyl-1H-pyrazolo[3,4-b]pyridin-4-yl]-(2,5,5-trimethyl-piperazin-1-yl)-methanone]
inhibition at 1.14 µM: 99%

Cc1n[nH]c2nc(-c3ccc(O)cc3)cc(C(=O)N3CCNCC3c3ccc(F)cc3F)c12 (stereo not drawn) [Example 96, [2-(2,4-Difluoro-phenyl)-piperazin-1-yl]-[6-(4-hydroxy-phenyl)-3-methyl-1H-pyrazolo[3,4-b]pyridin-4-yl]-methanone]
inhibition at 1.14 µM: 98%

Cc1n[nH]c2nc(-c3ccc(O)cc3)cc(C(=O)N3CCNCC34Cc3ccccc3C4)c12 [Example 42, (1,3-Dihydro-spiro[indene-2,2′-piperazin]-1′-yl)-[6-(4-hydroxy-phenyl)-3-methyl-1H-pyrazolo[3,4-b]pyridin-4-yl]-methanone]
inhibition at 1.14 µM: 72%

Cc1n[nH]c2nc(-c3ccc(O)cc3)cc(C(=O)N3CC4CNCC4C3)c12 (stereo not drawn) [Example 192, (Hexahydro-pyrrolo[3,4-c]pyrrol-2-yl)-[6-(4-hydroxy-phenyl)-3-methyl-1H-pyrazolo[3,4-b]pyridin-4-yl]-methanone]
inhibition at 1.14 µM: 99%

Cc1n[nH]c2nc(-c3ccc(O)c(F)c3)cc(C(=O)N3CC4CNCC4C3)c12 (stereo not drawn) [Example 289, [6-(3-Fluoro-4-hydroxy-phenyl)-3-methyl-1H-pyrazolo[3,4-b]pyridin-4-yl]-(hexahydro-pyrrolo[3,4-c]pyrrol-2-yl)-methanone]
inhibition at 1.14 µM: 84%

CCN1CC2CC1CN2C(=O)c1cc(-c2ccc(O)c(F)c2)nc2[nH]nc(C)c12 (stereo not drawn) [Example 358, (5-Ethyl-2,5-diaza-bicyclo[2.2.1]hept-2-yl)-[6-(3-fluoro-4-hydroxy-phenyl)-3-methyl-1H-pyrazolo[3,4-b]pyridin-4-yl]-methanone]
inhibition at 1.14 µM: 28%

Cc1n[nH]c2nc(-c3ccc(O)cc3)cc(C(=O)N3CCNCC3c3ccc(C(F)(F)F)cc3)c12 (stereo not drawn) [Example 97, [6-(4-Hydroxy-phenyl)-3-methyl-1H-pyrazolo[3,4-b]pyridin-4-yl]-[2-(4-trifluoromethyl-phenyl)-piperazin-1-yl]-methanone]
inhibition at 1.14 µM: 96%

CCc1n[nH]c2nc(-c3ccc(O)cc3)cc(C(=O)N3CC[C@@H](N(C)C)C3)c12 [Example 176, ((R)-3-Dimethylamino-pyrrolidin-1-yl)-[3-ethyl-6-(4-hydroxy-phenyl)-1H-pyrazolo[3,4-b]pyridin-4-yl]-methanone]
inhibition at 1.14 µM: 40%

Cc1n[nH]c2nc(-c3ccc(O)cc3)cc(C(=O)N3CCC4(CCNCC4)CC3)c12 [Example 236, (3,9-Diaza-spiro[5.5]undec-3-yl)-[6-(4-hydroxy-phenyl)-3-methyl-1H-pyrazolo[3,4-b]pyridin-4-yl]-methanone]
inhibition at 1.14 µM: 84%

CCC1(N)CCN(C(=O)c2cc(-c3ccc(O)cc3F)nc3[nH]nc(C)c23)CC1 [Example 416, (4-Amino-4-ethyl-piperidin-1-yl)-[6-(2-fluoro-4-hydroxy-phenyl)-3-methyl-1H-pyrazolo[3,4-b]pyridin-4-yl]-methanone]
inhibition at 1.14 µM: 84%

CCc1n[nH]c2nc(-c3ccc(O)c(F)c3)cc(C(=O)N3CCNCC3)c12 [Example 2, [3-Ethyl-6-(3-fluoro-4-hydroxy-phenyl)-1H-pyrazolo[3,4-b]pyridin-4-yl]-piperazin-1-yl-methanone]
inhibition at 1.14 µM: 69%

Cc1cc(O)cc(C)c1-c1cc(C(=O)N2CCNCC2(C)C)c2c(C)n[nH]c2n1 [Example 156, (2,2-Dimethyl-piperazin-1-yl)-[6-(4-hydroxy-2,6-dimethyl-phenyl)-3-methyl-1H-pyrazolo[3,4-b]pyridin-4-yl]-methanone]
inhibition at 1.14 µM: 26%

Cc1n[nH]c2nc(-c3ccc(O)cc3)cc(C(=O)N3CCNC(Cc4ccccc4)C3)c12 (stereo not drawn) [Example 375, (3-Benzyl-piperazin-1-yl)-[6-(4-hydroxy-phenyl)-3-methyl-1H-pyrazolo[3,4-b]pyridin-4-yl]-methanone]
inhibition at 1.14 µM: 90%

Cc1n[nH]c2nc(-c3ccc(O)cc3)cc(C(=O)N3CC(N)C3)c12 [Example 247, (3-Amino-azetidin-1-yl)-[6-(4-hydroxy-phenyl)-3-methyl-1H-pyrazolo[3,4-b]pyridin-4-yl]-methanone]
inhibition at 1.14 µM: 69%

Cc1n[nH]c2nc(-c3ccc(O)c(F)c3)cc(C(=O)NC3CCN(C)CC3)c12 [Example 319, 6-(3-Fluoro-4-hydroxy-phenyl)-3-methyl-1H-pyrazolo[3,4-b]pyridine-4-carboxylic acid (1-methyl-piperidin-4-yl)-amide]
inhibition at 1.14 µM: 59%

Cc1n[nH]c2nc(-c3ccc(O)c(Cl)c3)cc(C(=O)N3CCNCC3)c12 [Example 9, [6-(3-Chloro-4-hydroxy-phenyl)-3-methyl-1H-pyrazolo[3,4-b]pyridin-4-yl]-piperazin-1-yl-methanone]
inhibition at 1.14 µM: 41%

Cc1n[nH]c2nc(-c3ccc(O)c(F)c3)cc(C(=O)NC3CN4CCC3CC4)c12 (stereo not drawn) [Example 333, 6-(3-Fluoro-4-hydroxy-phenyl)-3-methyl-1H-pyrazolo[3,4-b]pyridine-4-carboxylic acid (1-aza-bicyclo[2.2.2]oct-3-yl)-amide]
inhibition at 1.14 µM: 67%

Cc1n[nH]c2nc(-c3cc(F)c(O)c(F)c3)cc(C(=O)N3CCNCC3)c12 [Example 12, [6-(3,5-Difluoro-4-hydroxy-phenyl)-3-methyl-1H-pyrazolo[3,4-b]pyridin-4-yl]-piperazin-1-yl-methanone]
inhibition at 1.14 µM: 61%

CC(=O)N1CCN(C(=O)c2cc(-c3ccc(O)c(F)c3)nc3[nH]nc(C)c23)CC1 [Example 356, 1-{4-[6-(3-Fluoro-4-hydroxy-phenyl)-3-methyl-1H-pyrazolo[3,4-b]pyridine-4-carbonyl]-piperazin-1-yl}-ethanone]
inhibition at 1.14 µM: 31%

Cc1n[nH]c2nc(-c3ccc(O)cc3F)cc(C(=O)N3C[C@@H](c4ccccc4)NC[C@@H]3C)c12 (single isomer, unassigned) [Example 461, [6-(2-Fluoro-4-hydroxy-phenyl)-3-methyl-1H-pyrazolo[3,4-b]pyridin-4-yl]-(trans-2-methyl-5-phenyl-piperazin-1-yl)-methanone]
% Inhibition: 99%

COc1cc(O)ccc1-c1cc(C(=O)N2CCNCC2)c2c(C)n[nH]c2n1 [Example 14, [6-(4-Hydroxy-2-methoxy-phenyl)-3-methyl-1H-pyrazolo[3,4-b]pyridin-4-yl]-piperazin-1-yl-methanone]
inhibition at 1.14 µM: 94%

Cc1cc(O)ccc1-c1cc(C(=O)N2CCNCC2c2ccccc2F)c2c(C)n[nH]c2n1 (stereo not drawn) [Example 151, [2-(2-Fluoro-phenyl)-piperazin-1-yl]-[6-(4-hydroxy-2-methyl-phenyl)-3-methyl-1H-pyrazolo[3,4-b]pyridin-4-yl]-methanone]
inhibition at 1.14 µM: 96%
